{"source": "ChEMBL document CHEMBL3588828", "about": "“A Selective, Cell-Permeable Nonphosphorylated Bicyclic Peptidyl Inhibitor against Peptidyl-Prolyl Isomerase Pin1” (J Med Chem, 2015)", "key": {"[1]": {"system": "HeLa", "assay": "Drug uptake in human HeLa cells assessed as mean fluorescence intensity at 5 uM using FITC-labeled compound incubated for 2 hrs by flow cytometry (reference value: 86)", "assay_type": "ADME, cell-based"}, "[2]": {"system": "HeLa", "assay": "Antiproliferative activity against human HeLa cells assessed as reduction in cell growth incubated for 72 hrs by MTT assay", "assay_type": "functional, cell-based", "conditions": "hela"}, "[3]": {"system": "HeLa", "assay": "Growth inhibition of human HeLa cells at 5 uM incubated for 3 days by MTT assay", "assay_type": "functional"}, "[4]": {"molecular_target": "Peptidyl-prolyl cis-trans isomerase NIMA-interacting 1 (Homo sapiens, UniProt Q13526, S16A/Y23A)", "assay": "Binding affinity to N-terminal MBP fused and Texas-red-labeled full-length human Pin1 S16A/Y23A mutant expressed in Escherichia coli assessed as increase in fluorescence anisotropy by spectrofluorimetry"}, "[5]": {"system": "Peptidyl-prolyl cis-trans isomerase NIMA-interacting 1 (Homo sapiens), Q13526 [S16A,Y23A]", "assay": "Binding affinity to N-terminal MBP fused and Texas-red-labeled full-length human Pin1 S16A/Y23A mutant expressed in Escherichia coli assessed as increase in fluorescence anisotropy at 5 uM by spectrofluorimetry"}, "[6]": {"molecular_target": "Peptidyl-prolyl cis-trans isomerase NIMA-interacting 1 (Homo sapiens) (UniProt Q13526)", "assay": "Inhibition of Pin1 in human HeLa cells assessed as increase in PML protein levels at 0.2 to 5 uM incubated for 2 hrs by Western blotting method relative to untreated control", "assay_type": "cell-based"}}, "note": "Activity calls are given as the source filed them. The rule behind the calls is not given here.", "data": [{"smiles": "C[C@H](OP(=O)(O)O)[C@H]1NC(=O)CN(C)C(=O)[C@@H](C)NC(=O)[C@H](CCCCN)NC(=O)[C@H](Cc2ccc(O)cc2)NC(=O)[C@H](Cc2ccc3ccccc3c2)NC(=O)[C@H]2CCCCN2C1=O", "values": [{"measurement": "Flu intensity", "setting": "[1]", "value": 193}, {"measurement": "IC50", "setting": "[2]", "value": "Not Active"}, {"measurement": "growth inhibition (GI)", "setting": "[3]", "value": "inactive"}, {"measurement": "Kd", "setting": "[4]; read-out: Kd", "value": 240, "unit": "nM"}]}, {"smiles": "CC[C@H](C)[C@@H]1NC(=O)[C@H](Cc2ccccc2)N(C)C(=O)c2cc3cc(c2)C(=O)NC[C@H](NC(=O)[C@@H](C)NC(=O)[C@H](C)NC(=O)[C@H](CCCNC(=N)N)NC(=O)[C@H](Cc2ccc4ccccc4c2)NC(=O)[C@H]2CCCCN2C(=O)[C@@H](CCC(=O)O)NC1=O)C(=O)N[C@@H](Cc1ccccc1)C(=O)N[C@@H](Cc1ccc2ccccc2c1)C(=O)N[C@@H](CCCNC(=N)N)C(=O)N[C@@H](CCCNC(=N)N)C(=O)N[C@@H](CCCNC(=N)N)C(=O)N[C@@H](CCCNC(=N)N)C(=O)N[C@H](C(=O)N[C@@H](CCCCN)C(=O)O)CNC3=O", "values": [{"measurement": "Activity", "setting": "[5]", "value": "> 50", "unit": "%"}, {"measurement": "Kd", "setting": "[4]; read-out: Kd", "value": 1250, "unit": "nM"}]}, {"smiles": "C[C@@H]1NC(=O)[C@H](CCCNC(=N)N)NC(=O)[C@H](Cc2ccc3ccccc3c2)NC(=O)[C@@H](C)NC(=O)[C@@H]([C@H](C)O)NC(=O)CN(C)C(=O)[C@@H](C)NC(=O)c2cc3cc(c2)C(=O)NC[C@H](NC(=O)[C@@H](C)NC1=O)C(=O)N[C@@H](Cc1ccccc1)C(=O)N[C@@H](Cc1ccc2ccccc2c1)C(=O)N[C@@H](CCCNC(=N)N)C(=O)N[C@@H](CCCNC(=N)N)C(=O)N[C@@H](CCCNC(=N)N)C(=O)N[C@@H](CCCNC(=N)N)C(=O)N[C@H](C(=O)N[C@@H](CCCCN)C(=O)O)CNC3=O", "values": [{"measurement": "Flu intensity", "setting": "[1]", "value": 8730}, {"measurement": "IC50", "setting": "[2]", "value": "Not Active"}, {"measurement": "inhibition", "setting": "[6]", "value": "inactive"}, {"measurement": "growth inhibition (GI)", "setting": "[3]", "value": "inactive"}, {"measurement": "Kd", "setting": "[4]", "value": "Not Active"}]}, {"smiles": "C[C@@H]1NC(=O)[C@H](CCCNC(=N)N)NC(=O)[C@H](Cc2ccc3ccccc3c2)NC(=O)[C@H]2CCCCN2C(=O)[C@@H](CCC(=O)O)NC(=O)[C@H](Cc2cnc[nH]2)NC(=O)[C@H](c2ccccc2)NC(=O)c2cc3cc(c2)C(=O)NC[C@H](NC(=O)[C@@H](C)NC1=O)C(=O)N[C@@H](Cc1ccccc1)C(=O)N[C@@H](Cc1ccc2ccccc2c1)C(=O)N[C@@H](CCCNC(=N)N)C(=O)N[C@@H](CCCNC(=N)N)C(=O)N[C@@H](CCCNC(=N)N)C(=O)N[C@@H](CCCNC(=N)N)C(=O)N[C@H](C(=O)N[C@@H](CCCCN)C(=O)O)CNC3=O", "values": [{"measurement": "Activity", "setting": "[5]", "value": "> 50", "unit": "%"}, {"measurement": "Kd", "setting": "[4]; read-out: Kd", "value": 1470, "unit": "nM"}]}, {"smiles": "C[C@@H]1NC(=O)[C@H](CCCNC(=N)N)NC(=O)[C@H](Cc2ccc3ccccc3c2)NC(=O)[C@H]2CCCCN2C(=O)[C@@H]([C@H](C)O)NC(=O)[C@H](c2ccccc2)NC(=O)[C@H](Cc2cnc[nH]2)NC(=O)c2cc3cc(c2)C(=O)NC[C@H](NC(=O)[C@@H](C)NC1=O)C(=O)N[C@@H](Cc1ccccc1)C(=O)N[C@@H](Cc1ccc2ccccc2c1)C(=O)N[C@@H](CCCNC(=N)N)C(=O)N[C@@H](CCCNC(=N)N)C(=O)N[C@@H](CCCNC(=N)N)C(=O)N[C@@H](CCCNC(=N)N)C(=O)N[C@H](C(=O)N[C@@H](CCCCN)C(=O)O)CNC3=O", "values": [{"measurement": "Activity", "setting": "[5]", "value": "> 50", "unit": "%"}, {"measurement": "Kd", "setting": "[4]; read-out: Kd", "value": 1400, "unit": "nM"}]}, {"smiles": "C[C@@H]1NC(=O)[C@H](CCCNC(=N)N)NC(=O)[C@H](Cc2ccc3ccccc3c2)NC(=O)[C@H]2CCCCN2C(=O)[C@@H]([C@H](C)O)NC(=O)CNC(=O)[C@H](Cc2ccccc2)N(C)C(=O)c2cc3cc(c2)C(=O)NC[C@H](NC(=O)[C@@H](C)NC1=O)C(=O)N[C@@H](Cc1ccccc1)C(=O)N[C@@H](Cc1ccc2ccccc2c1)C(=O)N[C@@H](CCCNC(=N)N)C(=O)N[C@@H](CCCNC(=N)N)C(=O)N[C@@H](CCCNC(=N)N)C(=O)N[C@@H](CCCNC(=N)N)C(=O)N[C@H](C(=O)N[C@@H](CCCCN)C(=O)O)CNC3=O", "values": [{"measurement": "Activity", "setting": "[5]", "value": "> 50", "unit": "%"}, {"measurement": "Kd", "setting": "[4]; read-out: Kd", "value": 1080, "unit": "nM"}]}, {"smiles": "CN1CC(=O)N[C@H](CC(=O)O)C(=O)N2CCCC[C@@H]2C(=O)N[C@@H](Cc2ccc3ccccc3c2)C(=O)N[C@@H](CCCNC(=N)N)C(=O)NCCC(=O)NCCC(=O)N[C@H]2CNC(=O)c3cc(cc(c3)C(=O)N3CCC[C@H]3C1=O)C(=O)NC[C@@H](C(=O)N[C@@H](CCCCN)C(=O)O)NC(=O)[C@H](CCCNC(=N)N)NC(=O)[C@H](CCCNC(=N)N)NC(=O)[C@H](CCCNC(=N)N)NC(=O)[C@H](CCCNC(=N)N)NC(=O)[C@H](Cc1ccc3ccccc3c1)NC(=O)[C@H](Cc1ccccc1)NC2=O", "values": [{"measurement": "Kd", "setting": "[4]; read-out: Kd", "value": 4830, "unit": "nM"}]}, {"smiles": "C[C@@H]1NC(=O)[C@H](CCCNC(=N)N)NC(=O)[C@H](Cc2ccc3ccccc3c2)NC(=O)[C@H]2CCCCN2C(=O)[C@@H]([C@H](C)O)NC(=O)[C@H](Cc2ccc(F)cc2)NC(=O)[C@@H](Cc2ccccc2)NC(=O)c2cc3cc(c2)C(=O)NC[C@H](NC(=O)[C@@H](Cc2ccccc2)NC1=O)C(=O)N[C@@H](CCCNC(=N)N)C(=O)N[C@@H](CCCNC(=N)N)C(=O)N[C@@H](CCCNC(=N)N)C(=O)N[C@@H](CCCNC(=N)N)C(=O)N[C@@H](Cc1ccc2ccccc2c1)C(=O)N[C@@H](Cc1ccccc1)C(=O)N[C@H](C(=O)N[C@@H](CCCCN)C(=O)O)CNC3=O", "values": [{"measurement": "Kd", "setting": "[4]; read-out: Kd", "value": 980, "unit": "nM"}]}]}
